Converted amounts (≈) assume the structure as drawn. The source made the active and inactive calls. No cut-off for these calls is given here.
Experiments:
Escherichia coli = experiment: Antimicrobial activity against Escherichia coli ATCC […] assessed as growth inhibition after 24-48 hr by broth microdilution technique; format: functional
Pseudomonas aeruginosa = experiment: Antimicrobial activity against Pseudomonas aeruginosa ATCC 27853 assessed as growth inhibition after 24-48 hr by broth microdilution technique; format: functional
Klebsiella pneumoniae = experiment: Antimicrobial activity against Klebsiella pneumoniae CCM 2318 assessed as growth inhibition after 24 to 48 hr by broth microdilution technique; format: functional
Salmonella typhimurium = experiment: Antimicrobial activity against Salmonella enterica subsp. enterica serovar Typhimurium CCM 5445 assessed as growth inhibition after 24-48 hr by broth microdilution technique; format: functional
Bacillus subtilis = experiment: Antimicrobial activity against Bacillus subtilis ATCC 6633 assessed as growth inhibition after 24-48 hr by broth microdilution technique; format: functional
Candida albicans = experiment: Antimicrobial activity against Candida albicans ATCC 10239 assessed as growth inhibition after 24-48 hr by broth microdilution technique; format: functional
Enterococcus faecalis = experiment: Antimicrobial activity against Enterococcus faecalis ATCC 29212 assessed as growth inhibition at 0.005 to 5 mg/ml after 24-48 hr by broth microdilution technique; format: functional, organism-based
Staphylococcus aureus = experiment: Antimicrobial activity against Staphylococcus aureus ATCC 6538-P assessed as growth inhibition after 24-48 hr by broth microdilution technique; format: functional

Row | Compound | MIC (Escherichia coli) | MIC (Pseudomonas aeruginosa) | MIC (Klebsiella pneumoniae) | MIC (Salmonella typhimurium) | MIC (Bacillus subtilis) | MIC (Candida albicans) | MIC (Staphylococcus aureus) | growth inhibition (GI) (Enterococcus faecalis)
1 | CC(=O)Cc1ccc(C=O)o1 [5-ACETYLMETHYL-FURFURAL] | 500 µg/mL (≈ 3.29 mM) | 500 µg/mL (≈ 3.29 mM) | 2500 µg/mL (≈ 16.4 mM) | 750 µg/mL (≈ 4.93 mM) | 500 µg/mL (≈ 3.29 mM) | 2500 µg/mL (≈ 16.4 mM) | inactive | inactive
2 | COC(C)(CC1O[C@@H]2[C@H]3OC(C)(C)O[C@H]3O[C@H]12)OC (stereo partly drawn) | inactive | inactive | inactive | inactive | inactive | inactive | inactive | inactive
3 | COC(C)(CC1O[C@H]2[C@H]3O[C@H](C(Cl)(Cl)Cl)O[C@H]3O[C@H]12)OC (stereo partly drawn) | 250 µg/mL (≈ 0.688 mM) | 500 µg/mL (≈ 1.38 mM) | 2500 µg/mL (≈ 6.88 mM) | inactive | 500 µg/mL (≈ 1.38 mM) | inactive | inactive | inactive

Continued, in another order:

Row | MIC (Escherichia coli) | MIC (Pseudomonas aeruginosa) | MIC (Klebsiella pneumoniae) | MIC (Salmonella typhimurium) | MIC (Bacillus subtilis) | MIC (Candida albicans) | MIC (Staphylococcus aureus) | Compound | growth inhibition (GI) (Enterococcus faecalis)
4 | 500 µg/mL (≈ 1.38 mM) | 500 µg/mL (≈ 1.38 mM) | 2500 µg/mL (≈ 6.88 mM) | inactive | 2500 µg/mL (≈ 6.88 mM) | inactive | inactive | COC(C)(CC1O[C@H]2[C@H]3O[C@@H](C(Cl)(Cl)Cl)O[C@H]3O[C@H]12)OC (stereo partly drawn) | inactive
5 | 500 µg/mL (≈ 1.38 mM) | 500 µg/mL (≈ 1.38 mM) | inactive | inactive | 500 µg/mL (≈ 1.38 mM) | inactive | inactive | COC(C)(CC1O[C@@H]2[C@H]3O[C@@H](C(Cl)(Cl)Cl)O[C@H]3O[C@H]12)OC (stereo partly drawn) | inactive
6 | inactive | 750 µg/mL (≈ 2.73 mM) | inactive | 750 µg/mL (≈ 2.73 mM) | 1500 µg/mL (≈ 5.47 mM) | inactive | 3500 µg/mL (≈ 12.8 mM) | COC(C)(CC1O[C@H]2[C@H]3OC(C)(C)O[C@H]3O[C@H]12)OC (stereo partly drawn) | inactive
